Results on 31 compounds are retold here after patent US20260042747A1, “KIT INHIBITORS, COMPOUNDS, PHARMACEUTICAL COMPOSITIONS, AND METHODS OF USE THEREOF” (Alivexis, Inc., priority 2022, published 2026).

Where a name gives a salt, the structure may show the parent alone. Read-outs that look alike come from different tables or passages of the source.

Assay [1] deals with recombinant human KIT tyrosine kinase protein (Homo sapiens (Human), UniProt P10721). Briefly: KIT tyrosine kinase assay (ADP-Glo). In kind it is biochemical. The protocol: An in vitro assay utilizing the recombinant human KIT tyrosine kinase protein was developed to measure compound inhibition of KIT. KIT tyrosine kinase activity was measured by the ADP-Glo Kinase Assay system with poly […]) peptide substrate. Kinase Assay was performed in white 384-well plates and the luminescence was measured by Victor X5 Multilabel Counter (Perkin Elmer). Recombinant intracellular domain of human KIT protein was purchased from Carna Biosciences (Kobe, Japan). Poly […]) peptide was purchased from Sigma-Aldrich (St. Louis, Missouri, USA). ADP-Glo Kinase Assay reagent was purchased from Promega (Madison, Wisconsin, USA). Each test compound was dissolved in 100% DMSO to prepare 10 mM stock solutions. […] After the preincubation, 3 μL of substrate/ATP mixture was added and incubated for 1 hour at room temperature. The tyrosine phosphorylation by KIT kinase was quantified by ADP-Glo kinase assay kit following the manufacturer's protocol. Briefly, the phosphorylation reaction was terminated by adding 10 μL ADP-Glo reagent and incubated for 60 minutes at room temperature. 20 μL of Kinase Detection Reagent was added to each well and luminescence was measured by plate reader. […] Half maximal inhibitory concentration (IC50) was calculated by a Four […] Logistic Regression model using GraphPad Prism (GraphPad Software). The value without recombinant KIT protein and without test compound was used as a negative control (assay background).

A further assay has as its system M-07e cells. Briefly: SCF-dependent M-07e cell proliferation assay. In kind it is cell-based, human. The conditions noted are these: read-out: M-07e IC50. The protocol: SCF-dependent cell proliferation assay was developed to measure the inhibitory potency of the compounds in M-07e cells, which express wild-type human KIT protein. The assay was performed in 96-well plates and the IC50 of each KIT inhibitor was determined by CellTiter Glo Assay reagent and Victor X5 Multilabel Counter (Perkin Elmer).
M-07e cells were purchased from AcceGen Biotechnology. Cells were maintained with M-07e Growth medium: RPMI-1640 containing 20% FBS, 100 U/mL penicillin and 100 microgram/mL streptomycin, 10 ng/mL rhGM-CSF, 10 ng/mL rhSCF. M-07e cells were seeded at a density of 5000 cells/90 μL/well in 96-well plates. Test compounds were dissolved in 100% DMSO to make 20 mM stock solution and serially diluted 1:3 with 100% DMSO to make an 11-point dilution series with concen-trations from […] to 0.024 μM. The serially diluted compounds were then each diluted 1:50 with culture medium to obtain assay compound solutions containing 2% DMSO. Ten μL of assay compound solutions were added to the 90 μL of culture cell suspension in the 96-well plate, with a final DMSO concentration of 0.2%. The plates were then incubated in a 5% CO2 incubator at 37° C. for 3 days. To obtain Day Zero Controls for background calculation, cells were seeded at 5000 cells/100 μL in a new 96-well plate and processed on the same day. Both Day Zero controls and 3 day culture plates were then treated as follows. 100 μL of CellTiter Glo Assay reagent was added to each well and the plate was incubated at room temperature for 15 min on a shaker at 200-300 RPM. Then 100 μL of cell lysate samples were transferred to white wall 96-well plates and luminescence was measured by a plate reader. The luminescence of Day Zero Control was subtracted from the luminescence intensity of 3 day culture readings. The assay control for this experiment was cells treated with 0.2% DMSO in culture medium and wells with 100 μL of culture medium (0.2% DMSO without cells) were used as the blank for data analysis.
The IC50 value of each compound was determined by using % inhibition by nor-malizing inhibition in DMSO treated control wells to 0% using the following formula method: […]
Plot percent inhibition in proliferation of triplicates against the respective concen-trations of compound and fit the dose response curve using the sigmoidal dose response equation to generate the IC50 in GraphPad Prism 8 software.

Setting [2] is: Homo sapiens, M-07e, 72 h, SCF-dependent M-07e cell proliferation, 3 days, CellTiter Glo.

recombinant human KIT tyrosine kinase protein, sequence (P10721 546-976): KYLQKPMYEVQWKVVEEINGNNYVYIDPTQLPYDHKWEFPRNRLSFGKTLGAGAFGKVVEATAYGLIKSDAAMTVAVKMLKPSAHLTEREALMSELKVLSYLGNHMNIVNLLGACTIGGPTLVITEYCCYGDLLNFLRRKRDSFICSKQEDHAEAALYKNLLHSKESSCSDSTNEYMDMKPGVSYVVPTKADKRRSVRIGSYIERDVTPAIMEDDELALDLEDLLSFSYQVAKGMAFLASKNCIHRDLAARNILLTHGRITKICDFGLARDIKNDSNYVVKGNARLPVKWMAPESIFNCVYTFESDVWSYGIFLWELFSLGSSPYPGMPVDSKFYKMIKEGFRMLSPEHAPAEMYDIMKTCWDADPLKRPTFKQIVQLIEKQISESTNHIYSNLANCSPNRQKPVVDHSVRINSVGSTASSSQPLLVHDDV

Broadly, the IC50 is the concentration needed to halve the response being measured. For the compound `CN(c1ccc(CNC(=O)c2ccc3c(c2)[nH]c(=O)n3C)cn1)[C@@H]1CCC(F)(F)C1` [Example 122], the IC50 in assay [1] (Table 99) stood at 32 nM; with M-07e cells (Homo sapiens, M-07e, 72 h), 14 nM.
For the compound `Cn1c(=O)[nH]c2cc(C(=O)NCc3ccc(Oc4ccccc4F)nc3)c(F)cc21` [Compound 3, 6-Fluoro-N-((6-(2-fluorophenoxy)pyridin-3-yl)methyl)-1-methyl-2-oxo-2,3-dihydro-1H-benzimidazole-5-carboxamide trifluoroacetate], the IC50 in assay [1] (Table 98) was determined as 26 nM; in the assay with M-07e cells (setting [2]) it was 180 nM.
With `CN(c1ccc(CNC(=O)c2cc3[nH]c(=O)[nH]c3cc2F)cn1)[C@H]1C[C@@H](C(F)(F)F)C1` [Example 137], the IC50 in assay [1] (Table 99) was 23 nM; in the assay on M-07e cells (setting [2]) it was 36 nM.
Take `CN(Cc1cccc(F)c1)c1ccc(CNC(=O)c2ccc3c(c2)[nH]c(=O)n3C)cn1` [Example 73]: the IC50 in assay [1] (Table 98) was found to be 27 nM; with M-07e cells (Homo sapiens, M-07e, 72 h), 98 nM.
Consider `CN(c1ccc(CNC(=O)c2cc3[nH]c(=O)[nH]c3cc2F)cn1)C1CCC(F)(F)CC1` [Example 135], for which the IC50 in assay [1] (Table 99) came to 30 nM; in the assay on M-07e cells (setting [2]) it was 589 nM.
The matching figures for `CC(C)N(C)c1ccc(CNC(=O)c2cc3[nH]c(=O)[nH]c3cc2F)cn1` [Example 136]: 27 nM and 209 nM.
As for `C[C@H]1CCCN1c1ccc(CNC(=O)c2ccc3c(c2)[nH]c(=O)n3C)cn1` [Compound 14, (S)-1-Methyl-N-((6-(2-methylpyrrolidin-1-yl)pyridin-3-yl)methyl)-2-oxo-2,3-dihydro-1H-benzimidazole-5-carboxamide], the figures for the IC50 (in assay [1] (Table 98); in the assay on M-07e cells (setting [2])) were 63 nM and 560 nM, respectively.
On to `CN(c1ccc(CNC(=O)c2ccc3c(c2)[nH]c(=O)n3C)cn1)c1cccc(F)c1F` [Example 61], for which the IC50 in assay [1] (Table 98) was found to be 56 nM; in the assay on M-07e cells (Homo sapiens, M-07e, 72 h), 760 nM.
Take `CN(Cc1ccccc1F)c1ccc(CNC(=O)c2ccc3c(c2)[nH]c(=O)n3C)cn1` [Example 74]: the IC50 in assay [1] (Table 98) was found to be 25 nM; in the assay on M-07e cells (Homo sapiens, M-07e, 72 h), 110 nM.
With `CN(Cc1ccccc1)c1ccc(CNC(=O)c2ccc3c(c2)[nH]c(=O)n3C)cn1` [Example 66], the IC50 was found to be 33 nM in assay [1] (Table 98) and 79 nM in the assay with M-07e cells (Homo sapiens, M-07e, 72 h).
Turning to `CN(Cc1ccccn1)c1ccc(CNC(=O)c2ccc3c(c2)[nH]c(=O)n3C)cn1` [Example 76], the IC50 was determined as 86 nM in assay [1] (Table 98) and 1600 nM in the assay on M-07e cells (Homo sapiens, M-07e, 72 h).
With `CN(CC1CCCCO1)c1ccc(CNC(=O)c2ccc3c(c2)[nH]c(=O)n3C)cn1` (centres unmarked) [Example 71], the IC50 in assay [1] (Table 98) turned out to be 60 nM; in the assay with M-07e cells (Homo sapiens, M-07e, 72 h) it was 310 nM.
Take `CN(c1ccc(CNC(=O)c2ccc3c(c2)[nH]c(=O)n3C)cn1)C12CC(C1)C2` [Example 75]: the IC50 was found to be 61 nM in assay [1] (Table 98) and 500 nM in the assay on M-07e cells (Homo sapiens, M-07e, 72 h).
Regarding `CN(c1ncc(CNC(=O)c2ccc3c(c2)[nH]c(=O)n3C)s1)C1CCC(F)(F)CC1` [Example 90], the IC50 was determined as 48 nM in assay [1] (Table 98) and 1800 nM in the assay with M-07e cells (Homo sapiens, M-07e, 72 h).
With `CN(c1ccc(CNC(=O)c2ccc3c(c2)[nH]c(=O)n3C)cn1)C1[C@H]2CC(F)(F)C[C@@H]12` (some centres unmarked) [Example 126], the IC50 in assay [1] (Table 99) was 33 nM; with M-07e cells (Homo sapiens, M-07e, 72 h), 806 nM.
`CN(c1ccc(CNC(=O)c2ccc3c(c2)[nH]c(=O)n3C)cn1)C1CC(OC(F)(F)F)C1` (single isomer, unassigned) [107 Isomer I, 1-Methyl-N-((6-(methyl(3-(trifluoromethoxy)cyclobutyl)amino)pyridin-3-yl)methyl)-2-oxo-2,3-dihydro-1H-benzimidazole-5-carboxamide]: the IC50 in assay [1] (Table 99) came out at 18 nM; with M-07e cells (SCF-dependent M-07e cell proliferation, 3 days, CellTiter Glo), 47 nM.
On to `CN(c1ccc(CNC(=O)c2cc(F)c3[nH]c(=O)[nH]c3c2)cn1)C1CC(F)(F)C1` [Example 144], for which the IC50 was 57 nM in assay [1] (Table 99) and 3560 nM with M-07e cells (setting [2]).
Take `Cn1c(=O)[nH]c2cc(C(=O)NCc3cnc4c(c3)CCN4C3CCC(F)(F)CC3)ccc21` [Compound 18, N-((1-(4,4-difluorocyclohexyl)-2,3-dihydro-1H-pyrrolo[2,3-b]pyridin-5-yl)methyl)-1-met hyl-2-oxo-2,3-dihydro-1H-benzimidazole-5-carboxamide]: the IC50 in assay [1] (Table 98) worked out at 57 nM; in the assay on M-07e cells (setting [2]), 210 nM.
Take `CCN(c1ccc(F)cc1)c1ccc(CNC(=O)c2ccc3c(c2)[nH]c(=O)n3C)cn1` [Example 58]: the IC50 came out at 21 nM in assay [1] (Table 98) and 2400 nM with M-07e cells (Homo sapiens, M-07e, 72 h).
In the case of `CC(C)N(C)c1ccc(CNC(=O)c2ccc3c(c2)[nH]c(=O)n3C)cn1` [Compound 11b, N-((6-(Isopropyl(methyl)amino)pyridin-3-yl)methyl)-1-methyl-2-oxo-2,3-dihydro-1H-be nzimidazole-5-carboxamide hydrochloride], the IC50 was found to be 96 nM in assay [1] (Table 98) and 220 nM in the assay with M-07e cells (setting [2]).
`CN(c1ccc(CNC(=O)c2ccc3c(c2)[nH]c(=O)n3C)cn1)C12CC(C(F)(F)F)(C1)C2` [Example 80]: the IC50 turned out to be 31 nM in assay [1] (Table 98) and 240 nM in the assay with M-07e cells (Homo sapiens, M-07e, 72 h).
With `CN(c1ccc(CNC(=O)c2cc3[nH]c(=O)n(C)c3cc2F)cn1)C1CCC(F)(F)CC1` [Example 115, N-((6-((4,4-Difluorocyclohexyl)(methyl)amino)pyridin-3-yl)methyl)-6-fluoro-1-methyl-2-oxo-2,3-dihydro-1H-benzimidazole-5-carboxamide], the IC50 is 21 nM in assay [1] (Table 99) and 70 nM in the assay on M-07e cells (setting [2]).
`CC(c1ccc(F)cc1)c1ccc(CNC(=O)c2ccc3c(c2)[nH]c(=O)n3C)cn1` (centres unmarked) [Compound 15, N-((6-(1-(4-Fluorophenyl)ethyl)pyridin-3-yl)methyl)-1-methyl-2-oxo-2,3-dihydro-1H-be nzimidazole-5-carboxamide]: the IC50 in assay [1] (Table 98) was 67 nM; with M-07e cells (setting [2]) it was 2200 nM.
In the case of `CN(c1ccc(CNC(=O)c2ccc3c(c2)[nH]c(=O)n3C)cn1)[C@H]1C[C@@H]1C(F)(F)F` [Example 127], the IC50 in assay [1] (Table 99) worked out at 47 nM; with M-07e cells (Homo sapiens, M-07e, 72 h) it was 1320 nM.
Consider `CN(c1ccc(CNC(=O)c2ccc3c(c2)[nH]c(=O)n3C)cn1)[C@@H]1CC[C@H](F)C1` [Example 134], for which the IC50 was 38 nM in assay [1] (Table 99) and 62 nM with M-07e cells (Homo sapiens, M-07e, 72 h).
In the case of `Cn1c(=O)[nH]c2cc(C(=O)NCc3ccc(N4CCCC4(C)C)nc3)ccc21` [Example 97], the IC50 was determined as 34 nM in assay [1] (Table 98) and 240 nM in the assay with M-07e cells (Homo sapiens, M-07e, 72 h).
Consider `CN(c1ccc(CNC(=O)c2cc3[nH]c(=O)[nH]c3c(F)c2F)cn1)C1CCC(F)(F)C1` (centres unmarked) [Example 146], for which the IC50 in assay [1] (Table 99) was determined as 30 nM; in the assay on M-07e cells (setting [2]), 621 nM.
For the compound `CN(c1ccc(CNC(=O)c2ccc3c(c2)[nH]c(=O)n3C)cn1)C1Cc2ccccc2C1` [Example 120], the IC50 in assay [1] (Table 99) was found to be 45 nM; in the assay on M-07e cells (Homo sapiens, M-07e, 72 h) it was 206 nM.
In the case of `CN(c1ccc(CNC(=O)c2ccc3c(c2)[nH]c(=O)n3C)cn1)C1CC(C)(C)C1` [Example 77], the IC50 came out at 29 nM in assay [1] (Table 98) and 110 nM with M-07e cells (Homo sapiens, M-07e, 72 h).
Turning to `CN(CC1CCCOC1)c1ccc(CNC(=O)c2ccc3c(c2)[nH]c(=O)n3C)cn1` (centres unmarked) [Example 69], the IC50 is 96 nM in assay [1] (Table 98) and 520 nM in the assay on M-07e cells (Homo sapiens, M-07e, 72 h).
Take `Cn1c(=O)[nH]c2cc(C(=O)NCc3cnc4c(ccn4-c4ccccc4)c3)ccc21` [Compound 20, 1-Methyl-2-oxo-N-((1-phenyl-1H-pyrrolo[2,3-b]pyridin-5-yl)methyl)-2,3-dihydro-1H-benzimidazole-5-carboxamide]: the IC50 came out at 38 nM in assay [1] (Table 98) and 400 nM in the assay with M-07e cells (setting [2]).
